Entries after “also recorded” stand apart in the source; their conditions may differ.
Assays:
CSF1R [1] = molecular target: T1, CSF1R (Mus musculus, UniProt P09581); test: PET/CT imaging in EAE mice; assay type: in vivo; set-up: from tissue; host or cells: brain of living CD-1, C57BL/6J, transgenic APP (AD model), EAE and CSF1R KO mice
T1 sequence (P09581 20-977): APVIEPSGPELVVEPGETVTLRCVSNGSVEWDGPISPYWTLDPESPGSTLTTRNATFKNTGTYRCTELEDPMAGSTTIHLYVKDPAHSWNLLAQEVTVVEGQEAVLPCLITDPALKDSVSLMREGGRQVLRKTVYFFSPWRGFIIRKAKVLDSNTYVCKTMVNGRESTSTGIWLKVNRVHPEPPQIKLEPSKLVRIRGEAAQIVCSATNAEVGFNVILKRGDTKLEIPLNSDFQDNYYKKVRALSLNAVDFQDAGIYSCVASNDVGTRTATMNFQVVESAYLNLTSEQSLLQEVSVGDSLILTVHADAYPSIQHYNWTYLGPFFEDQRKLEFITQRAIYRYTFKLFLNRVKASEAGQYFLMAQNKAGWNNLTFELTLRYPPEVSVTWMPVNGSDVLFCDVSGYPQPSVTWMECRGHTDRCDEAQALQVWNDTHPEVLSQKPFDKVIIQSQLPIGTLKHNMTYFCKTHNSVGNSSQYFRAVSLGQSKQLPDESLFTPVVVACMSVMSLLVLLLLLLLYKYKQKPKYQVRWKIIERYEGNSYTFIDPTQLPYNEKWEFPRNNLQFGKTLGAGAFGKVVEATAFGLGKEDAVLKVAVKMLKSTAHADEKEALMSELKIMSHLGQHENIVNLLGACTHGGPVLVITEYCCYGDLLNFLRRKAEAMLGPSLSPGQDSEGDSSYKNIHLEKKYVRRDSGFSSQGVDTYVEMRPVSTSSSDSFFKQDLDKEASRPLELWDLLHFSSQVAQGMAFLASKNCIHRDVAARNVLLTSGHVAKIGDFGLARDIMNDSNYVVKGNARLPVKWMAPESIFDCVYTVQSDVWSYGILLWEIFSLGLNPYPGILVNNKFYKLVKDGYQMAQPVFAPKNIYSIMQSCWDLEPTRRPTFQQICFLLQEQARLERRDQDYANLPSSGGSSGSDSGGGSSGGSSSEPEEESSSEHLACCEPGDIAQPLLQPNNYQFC

CSF1R [2] = test: Brain uptake in CSF1R knock-out vs control mice; assay type: in vivo; settings: whole brain, 45 min
Method: B6.Cg-Csf1rtml.2Jwp/J (CSF1R knock-out, KO) mice (21-23 g; age=four to eight weeks; Jackson Laboratories, Bar Harbor, Me.) (5 animals) and age-matched C57BL/6J controls (23-27 g) (5 animals) were used. […] The outcome variables were calculated as % SUV.

CSF1R [3] = molecular target: T1, CSF1R; test: Brain uptake in transgenic mouse model of AD; assay type: in vivo, mice; set-up: from tissue; host or cells: brain of living CD-1, C57BL/6J, transgenic APP (AD model), EAE and CSF1R KO mice; settings: all brain regions, 45 min
Source text: Mouse model of Alzheimer's disease-related amyloidosis overexpressed Amyloid Precursor Protein (APP) with Swedish and Indiana mutations was used. The transgenic APP had tetracycline transactivator (tTa)-sensitive promoter that was activated by over-expressing tTa driven by CaMKII promoter (5). Due to such combination of transgenes, the overexpression of transgenic APP was observed only in principal neurons of the forebrain. […] The Alzheimer's male mice (AD) and their sex-matched control littermates were 16 months of age at the time of the study. […] The outcome variables were calculated as % SUV.

CSF1R [4] = molecular target: T1, CSF1R; test: Brain uptake in microglia-depleted vs control mice; assay type: in vivo; set-up: from tissue; host or cells: brain of living CD-1, C57BL/6J, transgenic APP (AD model), EAE and CSF1R KO mice; settings: whole brain % SUV, 45 min, PLX3397 chow 290 mg/kg for 3 weeks
Method: Male C57BL/6J mice (22-24 g) from Charles River Laboratories were purchased. […] The control C57BL/6J mice (5 animals) were fed with standard mouse chow for 3 weeks. On the last day of treatment, all animals were sacrificed by cervical dislocation at 45 min following injection of 5.0 MBq (0.135 mCi) [^11C]CPPC [specific radioactivity=475 GBq/μmol (12.8 Ci/μmol)] in 0.2 mL saline into a lateral tail vein. […] The outcome variables were calculated as % SUV.

CSF1R [5] = test: Baboon PET (baseline, LPS, LPS-plus-blocking)

SMILES: [11CH3]N1CCN(c2ccc(NC(=O)c3ccc(C#N)o3)c(N3CCCCC3)c2)CC1 [[^11C]CPPC, 5-cyano-N-(4-(4-[^11C]methylpiperazin-1-yl)-2-(piperidin-1-yl)phenyl)furan-2-carboxamide]
- brainstem uptake in EAE mice vs control animals (CSF1R [1]): up to twofold greater
- brain uptake (% SUV) in CSF1R KO mouse brain vs. controls (CSF1R [2]): comparable
- uptake in brain regions of AD mice vs control (CSF1R [3]): significantly greater; also recorded: significantly higher
- reduction in radiotracer uptake in microglia-depleted mouse brain vs controls (CSF1R [4]): 14%
- parametric VT (CSF1R [5]; LPS-treated baboon (0.05 mg/kg i.v., 4 h before radiotracer)): 35-52
- K1 value, LPS-treated vs baseline (CSF1R [5]; baboon): changed only slightly
- decrease of metabolite-corrected radioactivity in plasma, LPS-treated vs. baseline (CSF1R [5]; baboon): ~50%
- parametric VT (CSF1R [5]; baboon baseline): 15-25
- peak SUV, brain (CSF1R [5]; baboon baseline, 20 min postinjection): 2.5-4.0
- increase of distribution volume (VT) values in all brain regions of LPS-treated animal (CSF1R [5]; baboon, LPS 0.05 mg/kg i.v.): More than a twofold increase
- VT in LPS-plus-blocking study (CSF1R [5]; baboon, blocker CPPC 1 mg/kg s.c. 1.5 h before radiotracer): reduction to the baseline level; also recorded: return to the baseline level
